These results are taken from BindingDB's records for patent US11759530 (City of Hope, 2023).

Assay in all cases: No assay
The target of assay [1] is Mitogen-activated protein kinase 11 (Homo sapiens, UniProt Q15759).
The target of assay [2] is Mitogen-activated protein kinase 14 (Homo sapiens, UniProt Q16539).
In a further assay the target is PIM2 (Homo sapiens, UniProt Q9P1W9).
Sequence of PIM2 (Q9P1W9 whole entry): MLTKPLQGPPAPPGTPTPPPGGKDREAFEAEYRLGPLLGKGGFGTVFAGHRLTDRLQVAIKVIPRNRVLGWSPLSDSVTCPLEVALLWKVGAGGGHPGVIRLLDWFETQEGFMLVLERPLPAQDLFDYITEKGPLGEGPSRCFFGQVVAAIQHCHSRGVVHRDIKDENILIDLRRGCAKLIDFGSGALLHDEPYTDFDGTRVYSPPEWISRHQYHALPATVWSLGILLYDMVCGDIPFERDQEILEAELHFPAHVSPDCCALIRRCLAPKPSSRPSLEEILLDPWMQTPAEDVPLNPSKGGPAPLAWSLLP

Sequence of Mitogen-activated protein kinase 14 (Q16539 whole entry): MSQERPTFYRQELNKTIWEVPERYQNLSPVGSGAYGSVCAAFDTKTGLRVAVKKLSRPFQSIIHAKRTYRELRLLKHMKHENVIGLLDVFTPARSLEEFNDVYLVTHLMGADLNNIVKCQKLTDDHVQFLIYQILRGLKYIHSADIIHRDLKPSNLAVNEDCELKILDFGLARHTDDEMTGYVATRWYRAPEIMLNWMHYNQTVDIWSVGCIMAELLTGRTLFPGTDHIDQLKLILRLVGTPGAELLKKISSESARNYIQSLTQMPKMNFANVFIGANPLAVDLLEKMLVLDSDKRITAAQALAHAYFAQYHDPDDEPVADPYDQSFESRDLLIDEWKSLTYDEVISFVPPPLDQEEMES
Sequence of Mitogen-activated protein kinase 11 (Q15759 whole entry): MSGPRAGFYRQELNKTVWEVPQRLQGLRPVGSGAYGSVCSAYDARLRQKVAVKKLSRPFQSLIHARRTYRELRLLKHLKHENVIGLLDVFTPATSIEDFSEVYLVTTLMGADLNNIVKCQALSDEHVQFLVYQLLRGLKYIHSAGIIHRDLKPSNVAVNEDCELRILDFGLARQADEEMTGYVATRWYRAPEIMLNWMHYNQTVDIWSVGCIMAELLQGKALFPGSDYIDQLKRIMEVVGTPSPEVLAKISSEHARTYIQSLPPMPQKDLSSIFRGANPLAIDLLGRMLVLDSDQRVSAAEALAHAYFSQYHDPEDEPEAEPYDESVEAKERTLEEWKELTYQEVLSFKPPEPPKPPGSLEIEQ

For the compound `O=S(=O)(c1c(O)c(Cl)cc(Cl)c1Cl)c1c(O)c(Cl)cc(Cl)c1Cl` [HL-7], the IC50 – broadly, the midpoint of a concentration-inhibition curve – turned out to be 0.55 µM in assay [1] and 0.13 µM in assay [2].
On to `O=c1c(O)c(-c2ccc(O)c(O)c2)oc2cc(O)c(O)c(O)c12` [US11759530, Compound Table1.8], for which, at PIM2, half-maximal inhibition (IC50) required 3.45 µM.
Regarding `NC(=O)c1ccc(-c2nc(-c3ccc4c(c3)OCCO4)c(-c3ccccn3)[nH]2)cc1` [US11759530, Compound Table1.3], 12000 µM corresponded to half-maximal inhibition in assay [2] (IC50).
